Measurements reported in patent US7531500B2, “Preventing airway mucus production by administration of EGF-R antagonists” (The Regents of the University of California, priority 1998, dated 2009).

How the values were obtained:
NCI-H292 cells [1] = assay: MUC5AC mRNA and protein in NCI-H292 cells incubated with cigarette smoke solution (Example 7); type: cell-based, human; conditions: BIBX1522 10 μg/ml, AG1478 10 μM; for MUC5AC protein synthesis induced by cigarette smoke solution: AG1295 100 μM, A1 100 μM, DMSO 1%, SOD 300 U/ml
Method: NCI-H292 cells, a human pulmonary mucoepidermoid carcinoma cell line, were grown in RPMI 1640 medium containing 10% fetal bovine serum, penicillin (100 U/ml), streptomycin (100 μg/ml) and Hepes (25 mM) at 37° C. in a humidified 5% CO2 water-jacketed incubator. Either 6-well culture plates or 8-chamber slides were used to culture the cells. When confluent, cells were incubated for 1 hour with cigarette smoke solution. The cells were then washed and incubated with fresh medium alone. Experiments were terminated at preselected times (for mRNA, 6 hours and 12 hours; for protein, 24 hours). As controls, cells were incubated with medium alone for same time periods. […] The effects of a selective inhibitor of platelet-derived growth factor receptor tyrosine kinase (tyrphostin AG1295, 100 μM, Calbiochem), and a negative control for tyrphostins (tyrphostin A1, 100 μM, Calbiochem) were also examined. The role of reactive oxygen species was examined using a scavenger of oxygen free radicals DMSO (1%, Sigma), or superoxide dismutase (SOD, 300 U/ml, Sigma).
In situ hybridization was performed using a human EGFR probe, which contains a 350-bp cDNA fragment of the human EGFR gene (pTRI-EGFR-human probe template, Ambion, Austin, Tex.) and a human MUC5AC probe, which contains a 298-bp cDNA fragment of the human MUC5AC gene, The 350-bp cDNA human EGFR was subcloned into pBluescript II SK-vector at Kpn I and EcoR I sites. This pBluescript was used to generate human EGFR antisense and sense probes. Hybridization was performed as described previously. Lou et al. (1998) Am. J. Respir. Crit. Care Med. 157:1927-1934. In brief, the cells grown on the 8-chamber slides were fixed in 4% paraformaldehyde, rehydrated in 0.5×SSC, and then acetylated in triethanolamine and acetic anhydride. Hybridization was carried out with 2500-4000 cpm/μl of antisense or sense probe in 50% deionized formamide, 0.3 M NaCl, 20 mM Tris, 5 mM EDTA, 1× Denhardt's solution, 20 mM dithiothreitol, 10% dextran sulfate, 0.5 mg/ml yeast tRNA, and 0.5 mg/ml sonicated salmon sperm DNA at 58° overnight. Posthybridization treatment consisted of washes with 2×SSC, 1 mM EDTA, 10 mM β-mercaptoethanol at room temperature, incubation with RNase solution (20 μg/ml) for 30 min at room temperature, and further washes in 0.1×SSC, 1 mM EDTA, 10 mM β-mercaptoethanol at 55° C. for 2 hours and then in 0.5×SSC at room temperature for 20 minutes. Specimens were dehydrated, air-dried, and covered with Kodak NBT nuclear track emulsion (Eastman Kodak, Rochester, N.Y.) for autoradiography. After exposure for 7 to 21 days at 4° C., the slides were developed, fixed, and counterstained with hematoxylin.
MUC5AC protein was measured as described previously. Takeyama et al. (1999) Proc. Natl. Acad. Sci. USA 96:3081-3086. In brief, cell lysates were prepared with PBS at multiple dilutions, and 50 μl of each sample was incubated with bicarbonate-carbonate buffer (50 μl) at 40° C. in a 96-well plate (Maxisorp Nunc, Fisher Scientific, Santa Clara, Calif.), until dry. Plates were washed three times with PBS and blocked with 2% bovine serum albumin, fraction V (Sigma) for 1 hour at room temperature. Plates were again washed three times with PBS and then incubated with 50 μl of MUC5AC mAb (1:1 00) that was diluted with PBS containing 0.05% Tween 20. After 1 hour, the wells were washed three times with PBS, and 100 μl horseradish peroxidase-goat anti-mouse IgG conjugate (1:10,000) was dispensed into each well. After 1 hour, plates were washed three times with PBS. Color reaction was developed with 3,3′,5,5′-tetramethylbenzidine (TMB) peroxidase solution (Kirkegaard & Perry Laboratories, Gaithersburg, Md.) and stopped with 2N H2S04. Absorbance was read at 450 nm.

NCI-H292 cells [2] = assay: Immunoassay of MUC5AC protein in NCI-H292 cells (Example 2); type: cell-based, human; conditions: for MUC5AC protein synthesis induced by the supernatant of activated neutrophils: BIBX1522 10 μg/ml, AG1478 10 μM, AG1295 100 μM, A1 100 μM, 30 min pretreatment, antibodies preincubated with supernatant; for MUC5AC synthesis by supernatant of activated neutrophils, cigarette smoke and H2O2 / MUC5AC protein synthesis by TGFα: DMSO 1%, SOD 300 U/ml; for MUC5AC synthesis by supernatant of activated neutrophils, cigarette smoke and H2O2: DMTU 50 mM
Method: Cell Culture. NCI-H292 cells, a human pulmonary mucoepidermoid carcinoma cell line, were grown in RPMI 1640 medium containing 10% fetal bovine serum, penicillin (100 U/ml), streptomycin (100 μg/ml) and Hepes (25 mM) at 37° C. in a humidified 5% CO2, water-jacketed incubator. Either 6-well culture plates or 8-chamber slides were used to culture the cells. […] The cells were then washed and incubated with fresh medium alone. Experiments were terminated at preselected times (for mRNA, 6 h and 12 h; for protein, 24 h). As controls, cells were incubated with medium alone for same time periods. […] In inhibition studies with blocking antibodies to EGF-R ligands, the supernatants were pretreated with anti-TGFα antibody (Calbiochem) or anti-EGF antibody for 30 min and then added to NCI-H292 cells. The role of oxygen free radicals was examined using scavengers of oxygen free radical DMSO (1%, Sigma), 1,3-dimethyl-2-thiourea (DMTU, 50 mM, Sigma), or superoxide dismutase (SOD, 300 U/ml, Sigma).
Preparation of Cigarette Smoke Solution. Research cigarettes (code2R1, produced for the University of Kentucky Tobacco and Health Research Foundation) were used in the study. Cigarette smoke solution was prepared as previously described (Dusser et al. (1989) J. Clin. Invest. 84:900-906). In brief, cigarette smoke was withdrawn into a polypropylene syringe (35 ml) at a rate of one puff/min (10 times) and bubbled slowly into 20 ml of RPM11640 containing 50 mM Hepes buffer. The smoke solution was then titrated to pH 7,4 and used immediately after preparation.
Immunoassay of MUC5AC Protein. MUC5AC protein was measured as described above. In brief, cell lysates were prepared with PBS at multiple dilutions, and 50 μl of each sample was incubated with bicarbonate-carbonate buffer (50 μl) at 40° C. in a 96-well plate (Maxisorp Nunc, Fisher Scientific, Santa Clara, Calif.), until dry. Plates were washed three times with PBS and blocked with 2% BSA (fraction V, Sigma) for 1 h at room temperature. Plates were again washed three times with PBS and then incubated with 50 μl of mouse monoclonal MUC5AC antibody (1:100) that was diluted with PBS containing 0.05% Tween 20. After 1 h, the wells were washed three times with PBS, and 100 μl horseradish peroxidase-goat anti-mouse IgG conjugate (1:10,000, Sigma) was dispensed into each well. After 1 h, plates were washed three times with PBS. Color reaction was developed with TMB peroxidase solution (Kirkegaard & Perry Laboratories, Gaithersburg, Md.) and stopped with 2N H2SO4. Absorbance was read at 450 nm.

EGFR = EGFR (Homo sapiens, UniProt P00533); assay: Immunoprecipitation of EGF-R and immunoblotting for tyrosine phosphorylation in NCI-H292 cells; type: cell-based; set-up: These cells express EGF-R constitutively; endogenous in cells; host or cells: NCI-H292 (human pulmonary mucoepidermoid carcinoma)
Method: Immunoprecipitation for EGF-R Protein and Immunoblotting for Tyrosine Phosphorylation. Cells were serum-starved for 24 h and then stimulated with TGFα, H2O2, or the supernatant of activated neutrophils for 15 min. After stimulation, cells were lysed and incubated for 30 min in an orbital shaker at 4° C. To remove insoluble material, cell lysates were centrifuged at 14,000 rpm for 5 min at 4° C. Aliquots of supernatants containing equal amounts of protein were immunoprecipitated with anti-EGF receptor antibody (polyclonal, Ab4, Calbiochem) and 20 μl of protein A-agarose (Santa Cruz) for 2 h at 4° C. Precipitates were washed three times with 0.5 ml of lysis buffer, suspended in SDS sample buffer, and boiled for 5 min. Proteins were separated by SDS-PAGE in 8.0% acrylamide gel. The resulting gel was equilibrated in the transfer buffer: 25 mM Tris-HCl, 192 mM glycine, 20% (vol/vol) methanol, pH 8.3. The proteins were then transferred electrophoretically to nitrocellulose membranes (0.22 μm), blocked with 5% fat-free skimmed milk in PBS containing 0.05% Tween 20 overnight and then incubated with monoclonal anti-phosphotyrosine antibody (1:100,Santa Cruz) for 1 h. Bound antibody was visualized according to a standard protocol for the avidin-biotin-alkaline phosphatase complex method (ABC kit, Vector Laboratories).

EGFR, sequence (P00533 25-1210): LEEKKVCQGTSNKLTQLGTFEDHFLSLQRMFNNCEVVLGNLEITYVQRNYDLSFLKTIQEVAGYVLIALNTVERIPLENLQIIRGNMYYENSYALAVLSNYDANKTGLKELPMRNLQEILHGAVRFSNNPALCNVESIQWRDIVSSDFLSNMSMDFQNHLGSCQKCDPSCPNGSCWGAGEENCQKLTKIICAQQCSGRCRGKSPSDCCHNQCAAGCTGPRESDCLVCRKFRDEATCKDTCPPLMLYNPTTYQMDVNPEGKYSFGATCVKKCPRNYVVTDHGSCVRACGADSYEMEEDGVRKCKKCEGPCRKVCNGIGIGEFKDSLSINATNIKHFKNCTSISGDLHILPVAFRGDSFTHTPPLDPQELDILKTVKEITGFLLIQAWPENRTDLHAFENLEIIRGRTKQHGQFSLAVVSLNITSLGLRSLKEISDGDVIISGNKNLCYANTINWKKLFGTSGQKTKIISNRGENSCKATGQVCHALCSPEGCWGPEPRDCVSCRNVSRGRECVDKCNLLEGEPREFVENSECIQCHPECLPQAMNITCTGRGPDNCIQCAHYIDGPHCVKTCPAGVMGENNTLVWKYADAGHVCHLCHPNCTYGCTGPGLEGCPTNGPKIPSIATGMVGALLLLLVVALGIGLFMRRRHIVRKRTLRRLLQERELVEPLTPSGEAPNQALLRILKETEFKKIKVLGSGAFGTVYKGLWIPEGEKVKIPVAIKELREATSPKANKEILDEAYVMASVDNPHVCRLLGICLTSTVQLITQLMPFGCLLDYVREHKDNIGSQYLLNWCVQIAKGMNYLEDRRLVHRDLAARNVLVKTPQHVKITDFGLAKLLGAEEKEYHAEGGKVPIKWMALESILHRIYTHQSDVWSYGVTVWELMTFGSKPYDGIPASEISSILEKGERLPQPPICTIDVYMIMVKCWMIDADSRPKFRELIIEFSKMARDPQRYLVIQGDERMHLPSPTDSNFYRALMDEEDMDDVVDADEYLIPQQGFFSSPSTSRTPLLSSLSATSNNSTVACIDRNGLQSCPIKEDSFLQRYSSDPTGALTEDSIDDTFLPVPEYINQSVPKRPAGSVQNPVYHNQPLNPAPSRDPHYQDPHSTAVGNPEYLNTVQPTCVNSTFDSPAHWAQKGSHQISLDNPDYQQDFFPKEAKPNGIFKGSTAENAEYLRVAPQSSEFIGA

| TGFα-induced EGF-R tyrosine phosphorylation (EGFR) | supernatant-, cigarette smoke-, and H2O2-induced EGF-R tyrosine phosphorylation (EGFR) | Compound | MUC5AC protein synthesis induced by cigarette smoke solution (NCI-H292 cells [1]) | MUC5AC protein synthesis induced by the supernatant of activated neutrophils (NCI-H292 cells [2]) | MUC5AC synthesis induced by cigarette smoke (NCI-H292 cells [2]) | MUC5AC synthesis by supernatant of activated neutrophils, cigarette smoke and H2O2 (NCI-H292 cells [2]) | MUC5AC protein synthesis by TGFα (NCI-H292 cells [2]) | MUC5AC mRNA expression induced by cigarette smoke solution (NCI-H292 cells [1]) | increase in MUC5AC protein synthesis induced by all stimuli (cigarette smoke, H2O2, TGFα) (NCI-H292 cells [2]; pretreatment 10 μM) |
| --- | --- | --- | --- | --- | --- | --- | --- | --- | --- |
|  |  | Cc1cc2ncc(-c3ccccc3)nc2cc1C [AG1295] | without effect | without effect |  |  |  |  |  |
| had no effect | inhibited | C[S+](C)[O-] [DMSO] | inhibited significantly |  | partially inhibited | significantly inhibited | unaffected |  |  |
|  |  | COc1cc2ncnc(Nc3cccc(Cl)c3)c2cc1OC [AG1478] | prevented | prevented |  |  |  | prevented | prevented |
|  |  | superoxide dismutase [SOD] | inhibited significantly |  | partially inhibited | significantly inhibited | unaffected |  |  |
